Results on two molecules are retold here after publication PMC12024234, “Antioxidant, Anti-Inflammatory, and Oral Bioavailability of Novel Sulfonamide Derivatives of Gallic Acid” (Antioxidants, 2025).

The structures appear in SMILES notation. Entries after “also recorded” stand apart in the source; their conditions may differ.

The target in data set [1] is T1, COX-2 (Homo sapiens, UniProt P35354).
T1 construct: endogenous in cells; host or cells: HIEC-6 cell lysate
T1 sequence (P35354 18-604): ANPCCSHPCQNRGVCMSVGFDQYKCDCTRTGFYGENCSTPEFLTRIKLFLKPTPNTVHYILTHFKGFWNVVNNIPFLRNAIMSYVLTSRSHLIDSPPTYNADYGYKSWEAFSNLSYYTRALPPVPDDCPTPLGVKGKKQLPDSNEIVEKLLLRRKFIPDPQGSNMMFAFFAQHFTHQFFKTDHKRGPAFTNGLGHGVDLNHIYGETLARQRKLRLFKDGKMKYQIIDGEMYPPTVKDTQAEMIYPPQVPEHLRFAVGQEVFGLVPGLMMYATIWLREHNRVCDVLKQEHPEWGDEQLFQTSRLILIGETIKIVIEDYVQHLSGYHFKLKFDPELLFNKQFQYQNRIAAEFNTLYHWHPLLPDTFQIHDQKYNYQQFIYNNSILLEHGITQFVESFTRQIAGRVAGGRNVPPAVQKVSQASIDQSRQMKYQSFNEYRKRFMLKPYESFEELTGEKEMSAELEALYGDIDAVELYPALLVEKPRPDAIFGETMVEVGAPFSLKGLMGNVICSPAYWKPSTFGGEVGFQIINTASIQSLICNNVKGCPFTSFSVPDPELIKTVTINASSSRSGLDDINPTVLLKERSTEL
Put plainly: Cyclooxygenase (COX-2) activity assay in HIEC-6 cell lysate. Format: biochemical. The method, then: Cyclooxygenase (COX-2) activity assay was performed in HIEC-6 cells according to the manufacturer’s instructions (ab204699). Resorufin standards (0–20 pmol/well) were used to generate a calibration curve for quantifying sample concentrations. HIEC-6 cells were centrifuged at 500× g for 3 min and washed with PBS. The cell pellet was lysed in an ice-cold lysis buffer containing 10% Triton X-100 and a protease inhibitor cocktail in PBS for 5 min. The lysate was then centrifuged at 12,000× g for 3 min at 4 °C, and the supernatant was collected and kept on ice. Protein concentration in the supernatant was determined using a Bradford assay, with a bovine serum albumin standard curve (0–2000 µg/mL). […] This mixture was added to a 96-well plate, and the reaction was initiated by adding arachidonic acid (COX-2 substrate) dissolved in NaOH solution. The enzymatic reaction produced fluorescent resorufin dye, which was measured at excitation/emission wavelengths of λEx/Em = 535/587 nm.

Data set [2] concerns HIEC-6 cells. Put plainly: Cell viability CCK-8 assay in HIEC-6. The following applies: 24 h incubation. Type of data set: cell-based, Human. On the procedure: Human intestinal epithelial cells (HIEC-6), originally obtained from the American Type Culture Collection (ATCC), were cultured in Opti-MEM™ I Reduced Serum Medium (Cat. No. 31985) supplemented with 20 mM HEPES, 10 mM L-glutamine, 10 ng/mL epidermal growth factor, and 4% fetal bovine serum (FBS) (New York, NY, USA). Cells were maintained in a humidified 5% CO2 incubator at 37 °C. Cell viability was assessed using the CCK-8 assay, a colorimetric method based on the reduction of water-soluble tetrazolium salts (WST-8) to a water-soluble formazan dye, with the resulting color intensity proportional to the number of viable cells. Briefly, cells were harvested at approximately 80% confluence, detached using trypsin-EDTA, and centrifuged at 1000 rpm for 5 min. The cell pellet was resuspended in fresh medium, and the density was adjusted to 1 × 10^6 cells/mL. A volume of 100 µL (1 × 10^5 cells/well) was seeded into a 96-well plate, with one well containing the medium only as background control. […] Subsequently, 10 µL of CCK-8 reagent was added to each well, and the plate was incubated for 4 h. Absorbance was measured at 450 nm using a microplate reader, results are expressed as the mean ± standard deviation (SD).
For orientation: Formazan colour is commonly taken as a measure of viable cells.

Data set [3] can be described thus: Oral bioavailability / pharmacokinetics in rats. The following applies: for Cmax / AUC(0-inf) / AUC(0-t) / CL/F / half-life / MRT inf / Tmax: male, Sprague Dawley; for Cmax / AUC(0-inf) / AUC(0-t) / CL/F / half-life / MRT inf / Tmax / Vz: rat serum; for Cmax: 100 mg/kg (table: 100 mg dose); for AUC(0-inf) / AUC(0-t) / CL/F / half-life / MRT inf / Tmax / Vz / Distribution volume at the terminal phase (Vz) relative to GA: 100 mg/kg; for MRT inf: n = 6, read-out: MRT0–∞; for Tmax / Distribution volume at the terminal phase (Vz) relative to GA: rat; for Tmax: serum, po. Format: in vivo, Sprague Dawley rats. The method, then: Male Sprague Dawley rats, aged 7–9 weeks and weighing 220 ± 20 g on average, were used for bioavailability studies. The animals were housed in the Laboratory Animal Research Unit at the University of Petra Pharmaceutical Center under controlled conditions: a temperature of 23 ± 2 °C, humidity of 55–65%, and a 12 h light/dark cycle. Prior to the experiments, the rats underwent a 10-day acclimatization period with free access to standard food and water. All procedures complied with the University of Petra’s animal use guidelines, which adhere to the standards of the Federation of European Laboratory Animal Sciences Association (FELASA). The rats were divided into three groups (n = 6 per group) and administered suspensions of GA, 3,4,5-TMBS, or 3,4,5-THBS prepared in 5% carboxymethylcellulose. Each compound was administered orally at a dose of 100 mg/kg, based on previous studies. Blood samples were collected from the retro-orbital plexus at 0.5, 1, 2, 3, 4, 6, 10, and 24 h post-administration. The samples were centrifuged at 5000 rpm for 10 min, and the serum was mixed with acetonitrile in a 1:3 ratio. After a second centrifugation at 5000 rpm for 15 min, the supernatant was collected for high-performance liquid chromatography (HPLC) analysis. HPLC analysis was conducted using a Shimadzu Class VP series system equipped with an LC-10AT VP pump, an SIL-10AD VP autosampler, and an SCL-10AVP system (Shimadzu, Kyoto, Japan). A C18 column (25 cm × 4.6 mm, 5 μm) was used, with a photodiode array detector set to a wavelength range of 200–400 nm. The mobile phase for TMBS and THBS consisted of a 50:50 (v/v) mixture of deionized water and acetonitrile containing 0.1% trifluoroacetic acid, flowing at 1 mL/min. For GA, the mobile phase was a 70:30 mixture of methanol and a water/sulfuric acid solution (100:2), also at a flow rate of 1 mL/min. The retention times for THBS and TMBS were 2.39 and 3.47 min, respectively, while GA eluted at 2.4 min, all detected at 254 nm. Results were analyzed using Lab Solution Software LC (version 5.3) and represent the average of three measurements.

As a reminder, the IC50 is the midpoint of a concentration-inhibition curve. Low readings indicate greater potency, high ones weaker potency. Broadly, the Cmax is the highest concentration seen after dosing. In general, AUC(0-inf) refers to total exposure, with the tail of the curve extrapolated. A low value points to less exposure. Usually AUC(0-t) stands for exposure summed from dosing to a finite time, without extrapolation to infinity. Read a high AUC(0-t) as high exposure. One may read the CL/F as the apparent clearance, not corrected for the fraction that reaches the circulation. In general, half-life refers to the time needed for the level to fall by half in the phase considered. Read a high half-life as slow loss. One may read the Tmax as the time at which the peak concentration occurs. `COc1cc(S(N)(=O)=O)cc(OC)c1OC` [3,4,5-TMBS, 3,4,5-trimethoxybenzenesulfonamide]: the “COX-2 inhibition compared to ibuprofen” value in data set [1] (1 µM) is “no significant difference in COX-2 inhibition relative to ibuprofen”. In addition, the “COX-2 inhibition compared to ibuprofen” value in data set [1] (50 µM) is reported as “high COX-2 inhibition; also recorded: highly significant increase in inhibition”. Besides, the midpoint of inhibition in data set [2], the IC50, lay at 33.4 ± 0.7 µM. Further, in data set [2] (Homo sapiens, HIEC-6, 24 h), the IC50 was determined as 33 µM. In data set [3] (n = 6), this molecule gave a peak concentration (Cmax) of 25800 ± 6030 ng/mL, a total exposure AUC(0-inf) of 386000 ± 43800 ng·h/mL, an AUC(0-t) of 173000 ± 49300 ng·h/mL and a CL/F of 6.17 mL/min/kg. Further, in data set [3] (n = 6), the half-life was 7.17 ± 1.62 h, the time to peak (Tmax) worked out at 2.88 ± 1.31 h and the Vz is recorded as 3.20 ± 0.55 (mg)/(μg/mL). In addition, in data set [3], the MRT inf is 11.9 ± 0.61 h, the Tmax is 2.87 h and the “Distribution volume at the terminal phase (Vz) relative to GA” value is given as “approximately ten-fold lower than that of GA”.
Consider `NS(=O)(=O)c1cc(O)c(O)c(O)c1` [3,4,5-THBS, 3,4,5-trihydroxybenzenesulfonamide], for which the “COX-2 inhibition compared to ibuprofen” value in data set [1] (1 µM) is given as “inhibition levels similar to ibuprofen”. Moreover, the “COX-2 inhibition compared to ibuprofen” value in data set [1] (50 µM) is given as “inhibition levels similar to ibuprofen”. The molecule also had an IC50 in data set [2] of 35.5 ± 1.52 µM. In addition, the IC50 in data set [2] (Homo sapiens, HIEC-6, 24 h) worked out at 35 µM. In data set [3] (n = 6), this molecule had a Cmax of 9560 ± 1900 ng/mL, a total exposure AUC(0-inf) of 24200 ± 7370 ng·h/mL, an exposure AUC(0-t) of 24200 ± 270 ng·h/mL and an apparent clearance CL/F of 73.2 mL/min/kg. For the same molecule, in data set [3] (n = 6), the half-life was 2.1 ± 1.3 h, the Tmax was 2 ± 0.1 h and the Vz is listed as 7.39 ± 2.16 (mg)/(μg/mL). Also, in data set [3], the MRT inf turned out to be 2.69 ± 0.36 h, the Tmax was 2 h and the “Distribution volume at the terminal phase (Vz) relative to GA” value is “approximately ten-fold lower than that of GA”.
